Results reported in ChEMBL document CHEMBL1201862, “PubChem BioAssay data set” (2004).
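These data come from cells grown in 96-well plates and exposed to compound for 48 hours at five concentrations. GI50: concentration for 50% inhibition of growth.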 Activity calls are given as the source filed them. Rule as the data show it: active = GI50 up to about 1.1 µM and inactive = higher.

How the values were obtained:
Assay in all cases: inhibition of tumour cell growth, NCI panel, 48 h
[1] = tested on: IGROV-1
[2] = tested on: SN12C
[3] = tested on: CCRF-CEM
[4] = tested on: HT-29
[5] = tested on: A549
[6] = tested on: OVCAR-4
[7] = tested on: TK-10
[8] = tested on: NCI-H226
[9] = tested on: HOP-62
[10] = tested on: PC-3
[11] = tested on: KM12
[12] = tested on: SNB-75
[13] = tested on: M14
[14] = tested on: SK-OV-3
[15] = tested on: HCC 2998
[16] = tested on: NCI-H23
[17] = tested on: K562
[18] = tested on: T47D
[19] = tested on: SF-539
[20] = tested on: CAKI-1
[21] = tested on: 786-0
[22] = tested on: Malme-3M
[23] = tested on: HOP-92
[24] = tested on: ACHN
[25] = tested on: MOLT-4
[26] = tested on: SK-MEL-5
[27] = tested on: NCI/ADR-RES
[28] = tested on: OVCAR-3
[29] = tested on: MDA-N
[30] = tested on: OVCAR-8
[31] = tested on: SK-MEL-28
[32] = tested on: UACC-257
[33] = tested on: COLO 205
[34] = tested on: RXF 393
[35] = tested on: NCI-H522
[36] = tested on: HCT-116
[37] = tested on: SK-MEL-2
[38] = tested on: HL-60
[39] = tested on: SW-620
[40] = tested on: SNB-19
[41] = tested on: LOX IMVI
[42] = tested on: DU-145
[43] = tested on: EKVX
[44] = tested on: A498
[45] = tested on: MDA-MB-435
[46] = tested on: HCT-15
[47] = tested on: MDA-MB-231
[48] = tested on: MCF7
[49] = tested on: UACC-62
[50] = tested on: U-251
[51] = tested on: SF-295
[52] = tested on: UO-31
[53] = tested on: SR
[54] = tested on: RPMI-8226
[55] = tested on: Hs-578T
[56] = tested on: NCI-H460
[57] = tested on: OVCAR-5

**Q.** What does the source list for N=C(N)/N=C(\N)Nc1cnccn1?
**A.** GI50 [1]: > 100 µM (inactive); GI50 [2]: > 100 µM (inactive); GI50 [3]: > 100 µM (inactive); GI50 [4]: > 100 µM (inactive); GI50 [5]: > 100 µM (inactive); GI50 [6]: > 100 µM (inactive); GI50 [7]: > 100 µM (inactive); GI50 [8]: > 100 µM (inactive); GI50 [9]: > 100 µM (inactive); GI50 [10]: > 100 µM (inactive); GI50 [11]: > 100 µM (inactive); GI50 [12]: > 100 µM (inactive); GI50 [13]: > 100 µM (inactive); GI50 [14]: > 100 µM (inactive); GI50 [15]: > 100 µM (inactive); GI50 [16]: > 100 µM (inactive); GI50 [17]: > 100 µM (inactive); GI50 [18]: > 100 µM (inactive); GI50 [19]: > 100 µM (inactive); GI50 [20]: > 100 µM (inactive); GI50 [21]: > 100 µM (inactive); GI50 [22]: > 100 µM (inactive); GI50 [23]: > 100 µM (inactive); GI50 [24]: > 100 µM (inactive); GI50 [25]: > 100 µM (inactive); GI50 [26]: > 100 µM (inactive); GI50 [27]: > 100 µM (inactive); GI50 [28]: > 100 µM (inactive); GI50 [29]: > 100 µM (inactive); GI50 [30]: > 100 µM (inactive); GI50 [31]: > 100 µM (inactive); GI50 [32]: > 100 µM (inactive); GI50 [33]: > 100 µM (inactive); GI50 [34]: > 100 µM (inactive); GI50 [35]: > 100 µM (inactive); GI50 [36]: > 100 µM (inactive); GI50 [37]: > 100 µM (inactive); GI50 [38]: > 100 µM (inactive); GI50 [39]: > 100 µM (inactive); GI50 [40]: > 100 µM (inactive); GI50 [41]: > 100 µM (inactive); GI50 [42]: > 100 µM (inactive); GI50 [43]: > 100 µM (inactive); GI50 [44]: > 100 µM (inactive); GI50 [45]: > 100 µM (inactive); GI50 [46]: > 100 µM; GI50 [47]: > 100 µM (inactive); GI50 [48]: > 100 µM (inactive); GI50 [49]: > 100 µM (inactive); GI50 [50]: > 100 µM (inactive); GI50 [51]: > 100 µM (inactive); GI50 [52]: > 100 µM (inactive)

**Q.** With C1=C(N2CCOCC2)/C(=C2\SC(=N/c3ccccc3)/C(=N\c3ccccc3)N2c2ccccc2)CC1 as the molecule, how does the GI50 [1] read?
**A.** > 100 µM (inactive)

**Q.** And the GI50 [2]?
**A.** > 100 µM (inactive)

**Q.** What about the GI50 [3] of the same molecule?
**A.** 19.7 µM (inactive)

**Q.** And the GI50 [4]?
**A.** > 100 µM (inactive)

**Q.** And the GI50 [53]?
**A.** 67.5 µM (inactive)

**Q.** And the GI50 [9]?
**A.** 28.9 µM (inactive)

**Q.** What about the GI50 [10] of the same molecule?
**A.** > 100 µM (inactive)

**Q.** And the GI50 [11]?
**A.** > 100 µM (inactive)

**Q.** And the GI50 [12]?
**A.** 23.1 µM (inactive)

**Q.** What about the GI50 [13] of the same molecule?
**A.** 38.2 µM (inactive)

**Q.** What about the GI50 [14] of the same molecule?
**A.** 34.1 µM (inactive)

**Q.** And the GI50 [54]?
**A.** > 100 µM (inactive)

**Q.** What about the GI50 [16] of the same molecule?
**A.** > 100 µM (inactive)

**Q.** And the GI50 [17]?
**A.** > 100 µM (inactive)

**Q.** And the GI50 [18]?
**A.** > 100 µM (inactive)

**Q.** What about the GI50 [55] of the same molecule?
**A.** 26.8 µM (inactive)

**Q.** What about the GI50 [20] of the same molecule?
**A.** 51.8 µM (inactive)

**Q.** What about the GI50 [22] of the same molecule?
**A.** > 100 µM (inactive)

**Q.** What about the GI50 [23] of the same molecule?
**A.** 34.8 µM (inactive)

**Q.** And the GI50 [25]?
**A.** 20.9 µM (inactive)

**Q.** What about the GI50 [26] of the same molecule?
**A.** > 100 µM (inactive)

**Q.** What about the GI50 [27] of the same molecule?
**A.** > 100 µM (inactive)

**Q.** What about the GI50 [28] of the same molecule?
**A.** 52.4 µM (inactive)

**Q.** And the GI50 [29]?
**A.** > 100 µM (inactive)

**Q.** What about the GI50 [30] of the same molecule?
**A.** 62.5 µM (inactive)

**Q.** What about the GI50 [31] of the same molecule?
**A.** 75.2 µM (inactive)

**Q.** What about the GI50 [33] of the same molecule?
**A.** > 100 µM (inactive)

**Q.** And the GI50 [35]?
**A.** 29 µM (inactive)

**Q.** What about the GI50 [36] of the same molecule?
**A.** > 100 µM (inactive)

**Q.** And the GI50 [37]?
**A.** 89.3 µM (inactive)

**Q.** What about the GI50 [38] of the same molecule?
**A.** > 10 µM (inactive)

**Q.** And the GI50 [42]?
**A.** > 100 µM (inactive)

**Q.** What about the GI50 [44] of the same molecule?
**A.** 94.4 µM (inactive)

**Q.** What about the GI50 [45] of the same molecule?
**A.** > 100 µM (inactive)

**Q.** And the GI50 [46]?
**A.** > 100 µM

**Q.** And the GI50 [56]?
**A.** > 100 µM (inactive)

**Q.** What about the GI50 [47] of the same molecule?
**A.** 61.5 µM (inactive)

**Q.** And the GI50 [49]?
**A.** 18.7 µM (inactive)

**Q.** And the GI50 [50]?
**A.** 68.4 µM (inactive)

**Q.** And the GI50 [51]?
**A.** 49.2 µM (inactive)

**Q.** For NS(=O)(=O)c1ccc(/C=C/c2ccc(O)c(O)c2)cc1, which GI50 [2] is on record?
**A.** 18.7 µM (inactive)

**Q.** And the GI50 [7]?
**A.** 60.7 µM (inactive)

**Q.** And the GI50 [9]?
**A.** 47.2 µM (inactive)

**Q.** And the GI50 [10]?
**A.** 19.1 µM (inactive)

**Q.** What about the GI50 [12] of the same molecule?
**A.** 20.4 µM (inactive)

**Q.** What about the GI50 [13] of the same molecule?
**A.** 26.5 µM (inactive)

**Q.** And the GI50 [14]?
**A.** 17.3 µM (inactive)

**Q.** What about the GI50 [15] of the same molecule?
**A.** 18.7 µM (inactive)

**Q.** And the GI50 [18]?
**A.** 14.5 µM (inactive)

**Q.** What about the GI50 [21] of the same molecule?
**A.** 34.7 µM (inactive)

**Q.** And the GI50 [22]?
**A.** 35.3 µM (inactive)

**Q.** What about the GI50 [26] of the same molecule?
**A.** 10.8 µM (inactive)

**Q.** And the GI50 [27]?
**A.** 23.1 µM (inactive)

**Q.** And the GI50 [28]?
**A.** 31.6 µM (inactive)

**Q.** And the GI50 [29]?
**A.** 18.3 µM (inactive)

**Q.** What about the GI50 [31] of the same molecule?
**A.** 23.2 µM (inactive)

**Q.** And the GI50 [32]?
**A.** 61.5 µM (inactive)

**Q.** And the GI50 [33]?
**A.** 21.2 µM (inactive)

**Q.** And the GI50 [34]?
**A.** 69.3 µM (inactive)

**Q.** And the GI50 [36]?
**A.** 25.5 µM (inactive)

**Q.** And the GI50 [37]?
**A.** 22.5 µM (inactive)

**Q.** And the GI50 [39]?
**A.** 22 µM (inactive)

**Q.** And the GI50 [40]?
**A.** 34.4 µM (inactive)

**Q.** What about the GI50 [42] of the same molecule?
**A.** 68.7 µM (inactive)

**Q.** What about the GI50 [57] of the same molecule?
**A.** 31.6 µM (inactive)

**Q.** And the GI50 [43]?
**A.** 21.2 µM (inactive)

**Q.** What about the GI50 [44] of the same molecule?
**A.** 54.3 µM (inactive)

**Q.** And the GI50 [56]?
**A.** 27.3 µM (inactive)

**Q.** What about the GI50 [47] of the same molecule?
**A.** 19.6 µM (inactive)

**Q.** What about the GI50 [48] of the same molecule?
**A.** 20.8 µM (inactive)

**Q.** What about the GI50 [51] of the same molecule?
**A.** 29.8 µM (inactive)

**Q.** What about the GI50 [52] of the same molecule?
**A.** 12.3 µM (inactive)
